Measured values taken from patent US8618287B2, “Derivatives of triazines and uracils, their preparation and their application in human therapeutics” (Pierre Fabre Medicament, priority 2008, dated 2013).

target: T1, Human SCD-1 (Homo sapiens, UniProt O00767); test: Human SCD-1 enzymatic activity from microsomes of HepG2 cells (conversion of stearic acid into oleic acid); type: biochemical; conditions: 10 μM compound; microsomal fraction of HepG2 cells; relative to carrier 0.1% DMSO; read-out: HSCD-1 (HEPG2) % inh. (10 μM)
T1 construct: adding 125 μg of microsomal fraction of HepG2 cells; host or cells: HepG2 human hepatocarcinoma cells (microsomal fraction)
T1 sequence (O00767 1-359): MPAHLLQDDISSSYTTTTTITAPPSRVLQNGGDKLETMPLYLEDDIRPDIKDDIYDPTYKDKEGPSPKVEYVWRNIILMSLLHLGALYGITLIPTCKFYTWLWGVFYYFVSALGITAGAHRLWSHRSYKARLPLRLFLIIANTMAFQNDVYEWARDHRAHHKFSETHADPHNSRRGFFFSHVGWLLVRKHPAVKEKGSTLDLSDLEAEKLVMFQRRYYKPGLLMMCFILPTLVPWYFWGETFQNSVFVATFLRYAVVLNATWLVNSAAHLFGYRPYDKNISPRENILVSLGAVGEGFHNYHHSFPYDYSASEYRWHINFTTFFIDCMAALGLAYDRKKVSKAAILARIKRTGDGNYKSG
Protocol: In vitro: Human SCD-1 enzymatic activity from microsomes of HepG2 cells after treatment with inhibitory compounds (inhibition %).
Human hepatocarcinoma HepG2 cells (ATCC, HB-8065) are grown to confluence and then trypsinized. The cell pellet is taken up in 10 mM Tris buffer (pH 7.4), saccharose (250 mM) DTT (1 mM) and then the cells are lyzed by sonication. The microsomes are obtained after centrifugation at 10,000 g for 20 minutes a 4° C. followed by centrifugation of the supernatant at 100,000 g for 60 minutes a 4° C. The pellet is taken up in 10 mM Tris buffer (pH 7.4) saccharose (250 mM) at 4° C. and the microsomal proteins are assayed and stored at −196° C. (liquid nitrogen).
The enzymatic reaction measures the conversion of stearic acid (a C18:0 fatty acid) into oleic acid (C18:1 fatty acid) by SCD-1. The enzymatic reaction is started by adding 125 μg of microsomal fraction of HepG2 cells to tubes (total reaction volume of 500 μl) containing 62 μM of stearic acid (45 μM of stearic acid and 17 μM of [^14C] stearic acid) in a phosphate buffer at 100 mM (pH 7.16) with 7.2 mM of ATP, 0.54 mM of CoA, 6 mM of MgCl2, 0.8 mM of NADH and the inhibitory compound or the carrier (0.1% DMSO). The tubes are incubated for 20 minutes at 37° C. and the enzymatic reaction is then stopped by adding KOH (12%) and saponification for 30 minutes at 80° C. After acidification (3N HCl), the fatty acids are extracted twice with ethyl ether, evaporated under nitrogen before being taken up with a methanol/dichloromethane (3:1) mixture. The product of the reaction (C18:1) is separated from the substrate of the reaction (C18:0) by HPLC (Perkin Elmer, C18 reverse phase column) coupled to a on-line radioactivity detector (FlowOne). Enzymatic activity is calculated in picomoles of stearic acid converted into oleic acid per minute and per mg of protein. For each inhibitory compound, an inhibition % is determined relatively to the reference enzymatic activity (carrier 0.1% DMSO). Sterculic acid is the reference inhibitory compound (Gomez F. E., Bauman D. E., Ntambi J. M., Fox B. G. Effects of sterculic acid on stearoyl-CoA desaturase in differentiating […] adipocytes. Biochem Biophys Res Commun. 300 316-326 (2003)).

SMILES	inhibition at 10 µM [%]
CCCCCCCn1c(=O)c(N2CCN(C(=O)c3ccccc3C(F)(F)F)CC2)nn(C)c1=O [Example 1, 4-heptyl-2-methyl-6-[4-(2-trifluoromethyl-benzoyl)-piperazin-1-yl]-2H-[1,2,4]triazine-3,5-dione]	11
Cn1c(=O)c(N2CCN(C(=O)c3ccccc3C(F)(F)F)CC2)nn(CCCC(F)(F)F)c1=O [Example 3, 4-methyl-2-(4,4,4-trifluoro-butyl)-6-[4-(2-trifluoromethyl-benzoyl)-piperazin-1-yl]-2H-[1,2,4]triazine-3,5-dione]	90
Cn1nc(N2CCC(Oc3ccccc3C(F)(F)F)CC2)c(=O)n(C)c1=O [Example 11, 2,4-dimethyl-6-[4-(2-trifluoromethyl-phenoxy)-piperidin-1-yl]-2H-[1,2,4]triazine-3,5-dione]	92
CCCCCCCn1c(=O)c(N2CCC(Oc3ccccc3C(F)(F)F)CC2)nn(CCC#N)c1=O [Example 12, 3-{4-heptyl-3,5-dioxo-6-[4-(2-trifluoromethyl-phenoxy)-piperidin-1-yl]-4,5-dihydro-3H-[1,2,4]triazin-2-yl}-propionitrile]	71
CCCCn1nc(N2CCC(Oc3ccccc3C(F)(F)F)CC2)c(=O)n(C)c1=O [Example 13, 2-butyl-4-methyl-6-[4-(2-trifluoromethyl-phenoxy)-piperidin-1-yl]-2H-[1,2,4]triazine-3,5-dione]	75
CNC(=O)Cn1nc(N2CCC(Oc3ccccc3C(F)(F)F)CC2)c(=O)n(C)c1=O [Example 14, N-methyl-2-{4-methyl-3,5-dioxo-6-[4-(2-trifluoromethyl-phenoxy)-piperidin-1-yl]-4,5-dihydro-3H-[1,2,4]triazin-2-yl}-acetamide]	74
CCOCCn1nc(N2CCC(Oc3ccccc3C(F)(F)F)CC2)c(=O)n(C)c1=O [Example 15, 2-(2-ethoxy-ethyl)-4-methyl-6-[4-(2-trifluoromethyl-phenoxy)-piperidin-1-yl]-2H-[1,2,4]triazine-3,5-dione]	74
Cn1c(=O)c(N2CCC(Oc3ccccc3C(F)(F)F)CC2)nn(CCc2c[nH]c3ccccc23)c1=O [Example 16, 2-[2-(1H-Indol-3-yl)-ethyl]-4-methyl-6-[4-(2-trifluoromethyl-phenoxy)-piperidin-1-yl]-2H-[1,2,4]triazine-3,5-dione]	57

tested on: not given; test: not given; conditions: not given

SMILES	melting point [°C]
Cn1cc(N2CCN(Cc3ccccc3)CC2)c(=O)n(C)c1=O	162
Cn1nc(N2CCN(c3cccc(C(F)(F)F)c3)CC2)c(=O)n(C)c1=O	163
COc1ccccc1OC1CCN(c2nn(C)c(=O)n(C)c2=O)CC1 [Example 34, 6-[4-(2-methoxy-phenoxy)-piperidin-1-yl]-2,4-dimethyl-2H-[1,2,4]triazine-3,5-dione]	78
Cn1nc(N2CCC(C(=O)c3ccc(F)cc3)CC2)c(=O)n(C)c1=O [Example 36, 6-[4-(4-fluoro-benzoyl)-piperidin-1-yl]-2,4-dimethyl-2H-[1,2,4]triazine-3,5-dione]	129
Cn1nc(N2CCC(Oc3ccccc3C(F)(F)F)C2)c(=O)n(C)c1=O (centres unmarked) [Example 37, 2,4-dimethyl-6-[3-(2-trifluoromethyl-phenoxy)-pyrrolidin-1-yl]-2H-[1,2,4]triazine-3,5-dione]	84
Cn1nc(N2CCC(Oc3ccccc3)C2)c(=O)n(C)c1=O (centres unmarked) [Example 38, 2,4-dimethyl-6-(3-phenoxy-pyrrolidin-1-yl)-2H-[1,2,4]triazine-3,5-dione]	80
Cn1nc(N2CCC(Cc3cc(C(F)(F)F)ccc3F)CC2)c(=O)n(C)c1=O [Example 39, 6-[4-(2-fluoro-5-trifluoromethyl-benzyl)-piperidin-1-yl]-2,4-dimethyl-2H-[1,2,4]triazine-3,5-dione]	116
Cn1nc(N2CCN(C(=O)c3cc(C(F)(F)F)ccc3C(F)(F)F)CC2)c(=O)n(C)c1=O [Example 40, 6-[4-(2,5-Bis-trifluoromethyl-benzoyl)-piperazin-1-yl]-2,4-dimethyl-2H-[1,2,4]triazine-3,5-dione]	90
Cn1nc(N2CCN(C(=O)c3ccc(F)cc3C(F)(F)F)CC2)c(=O)n(C)c1=O [Example 41, 6-[4-(4-fluoro-2-trifluoromethyl-benzoyl)-piperazin-1-yl]-2,4-dimethyl-2H-[1,2,4]triazine-3,5-dione]	128
Cc1ccccc1C(=O)N1CCN(c2nn(C)c(=O)n(C)c2=O)CC1 [Example 43, 2,4-dimethyl-6-[4-(2-methyl-benzoyl)-piperazin-1-yl]-2H-[1,2,4]triazine-3,5-dione]	60
Cn1nc(N2CCN(C(=O)c3cccc(C(F)(F)F)c3)CC2)c(=O)n(C)c1=O [Example 44, 2,4-dimethyl-6-[4-(3-trifluoromethyl-benzoyl)-piperazin-1-yl]-2H-[1,2,4]triazine-3,5-dione]	92
Cn1nc(N2CCN(C(=O)c3ccccc3Br)CC2)c(=O)n(C)c1=O [Example 45, 6-[4-(2-bromo-benzoyl)-piperazin-1-yl]-2,4-dimethyl-2H-[1,2,4]triazine-3,5-dione]	119
Cn1nc(N2CCN(C(=O)c3ccccc3)CC2)c(=O)n(C)c1=O [Example 46, 6-(4-benzoyl-piperazin-1-yl)-2,4-dimethyl-2H-[1,2,4]triazine-3,5-dione]	132
CC(C)C(C(=O)N1CCN(c2nn(C)c(=O)n(C)c2=O)CC1)c1ccc(Cl)cc1 (centres unmarked) [Example 49, 6-{4-[2-(4-chloro-phenyl)-3-methyl-butyryl]-piperazin-1-yl}-2,4-dimethyl-2H-[1,2,4]triazine-3,5-dione]	58
Cn1nc(N2CCN(C(=O)/C=C/c3ccc([N+](=O)[O-])cc3)CC2)c(=O)n(C)c1=O [Example 50, 2,4-dimethyl-6-{4-[(E)-3-(4-nitro-phenyl)-acryloyl]-piperazin-1-yl}-2H-[1,2,4]triazine-3,5-dione]	198
Cn1nc(N2CCN(C(=O)Oc3cccc(C(F)(F)F)c3)CC2)c(=O)n(C)c1=O [Example 51, 4-(2,4-dimethyl-3,5-dioxo-2,3,4,5-tetrahydro-[1,2,4]triazin-6-yl)-piperazine-1-carboxylic Acid 3-trifluoromethyl-phenyl Ester]	93
Cn1nc(N2CCN(C(=O)c3ccccc3C(F)(F)F)C(=O)C2)c(=O)n(C)c1=O [Example 53, 2,4-dimethyl-6-[3-oxo-4-(2-trifluoromethyl-benzoyl)-piperazin-1-yl]-2H-[1,2,4]triazine-3,5-dione]	90
Cn1cc(N2CCN(C(=O)c3ccccc3C(F)(F)F)CC2)c(=O)n(C)c1=O [Example 62, 1,3-dimethyl-5-[4-(2-trifluoromethyl-benzoyl)-piperazin-1-yl]-1H-pyrimidine-2,4-dione]	163
O=c1[nH]nc(N2CCC(Oc3ccccc3C(F)(F)F)CC2)c(=O)n1CCCC(F)(F)F [Example 72, 4-(4,4,4-trifluoro-butyl)-6-[4-(2-trifluoromethyl-phenoxy)-piperidin-1-yl]-2H-[1,2,4]triazine-3,5-dione]	102
Cn1c(=O)c(N2CCC(Oc3ccccc3C(F)(F)F)CC2)nn(C2Cc3ccccc3C2=O)c1=O (centres unmarked) [Example 87, 4-methyl-2-(1-oxo-indan-2-yl)-6-[4-(2-trifluoromethyl-phenoxy)-piperidin-1-yl]-2H-[1,2,4]triazine-3,5-dione]	110
Cn1nc(N2CCC(Oc3cc(F)ccc3Cl)CC2)c(=O)[nH]c1=O [Example 90, 6-(4-(2-chloro-5-fluorophenoxy)piperidin-1-yl)-2-methyl-1,2,4-triazine-3,5(2H, 4H)-dione]	172
